The source of these data is patent US20130059830A1, “NOVEL PROLYLCARBOXYPEPTIDASE INHIBITORS” (priority 2010, published 2013).

The term IC50 denotes the concentration needed to halve the response being measured.

In the first test the test system is rats.
Test: not given
To be noted: intracerebroventricular; cited from earlier work.
For the molecule t-butyl carbamate-prolyl prolinal [BPP], the overnight food intake result was “suppression of overnight food intake”.

A further test relates to obese, leptin deficient mice.
Test: not given
Conditions: systemic administration; cited from earlier work.
On to t-butyl carbamate-prolyl prolinal [BPP], for which the overnight food intake entry is given as “suppression of overnight food intake”.

The target in a further test is T1, human PrCP (Homo sapiens, UniProt P42785).
T1 construct: made in house
T1 sequence (P42785 46-496): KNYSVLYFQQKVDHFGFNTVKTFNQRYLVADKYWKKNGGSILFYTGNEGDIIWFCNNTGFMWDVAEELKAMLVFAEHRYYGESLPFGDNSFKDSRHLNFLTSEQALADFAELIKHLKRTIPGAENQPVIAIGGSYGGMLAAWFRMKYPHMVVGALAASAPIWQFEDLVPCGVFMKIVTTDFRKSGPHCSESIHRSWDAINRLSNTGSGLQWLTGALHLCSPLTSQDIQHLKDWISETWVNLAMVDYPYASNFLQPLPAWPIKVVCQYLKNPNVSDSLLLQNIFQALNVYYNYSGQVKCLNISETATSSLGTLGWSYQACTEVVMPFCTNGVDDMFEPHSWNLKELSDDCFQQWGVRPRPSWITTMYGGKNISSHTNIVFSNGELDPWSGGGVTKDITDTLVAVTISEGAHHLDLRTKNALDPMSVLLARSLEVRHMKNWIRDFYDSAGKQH
Nature of the test: Prolylcarboxypeptidase (PRCP) enzyme activity assay, fluorescence intensity kinetic assay, human enzyme. Format: biochemical. To be noted: recombinant human PrCP, 15 uM substrate, pH 5.5, 37° C. As for the experimental part: The potency of compounds of formula I against PrCP was determined by a fluorescence intensity kinetic assay measuring the IC50 values of PrCP inhibitor test compounds. […] The assay was run on a Perkin Elmer Envision 2103 plate reader using a 320 nm excitation filter and a 405 emission filter. The assay was performed using a Hamilton Star liquid handling workstation. The assay employed the internally quenched fluorescent substrate (1S)-1-carboxy-5-[(2,4-dinitrophenyl)amino]pentyl N-[(7-methoxy-2-oxo-2H-chromen-4-yl)acetyl]-L-alanyl-L-prolinate prepared in house.
The assay was run in a 384-well microtiter plate at 37° C. with a total volume of 50 uL. Final assay concentrations were 0.13 nM human PrCP (CHO) or 0.09 nM mouse PrCP (CHO) enzyme, 15 uM substrate and varying concentrations of inhibitor in buffer containing 10 mM NaOAc, 100 mM NaCl and 19.5 ug/mL BSA at pH 5.5. The assay also contained 2% DMSO used to solubilize the substrate and inhibitor. Inhibitors were prepared in 100% DMSO and serial diluted (in 100% DMSO) to generate 11 point titration curves. Either 39 uL of human or mouse PrCP enzyme was added to the wells of the assay plate, followed by a 1 uL addition of the serially diluted inhibitor and mixed three times using a 30 uL mix volume. The reaction was initiated by the addition of 10 uL substrate and mixed three times using a 30 uL mix volume. The reactions were monitored continuously over 25 min at 37° C. to obtain initial velocities. […] values were calculated by comparing the resulting rates of reaction of the inhibited and control initial velocities.
The enzymes were diluted in a mixture of 10 mM NaOAc (pH 5.5)/100 mM NaCl buffer containing 25 ug/mL bovine serum albumin that had been warmed to 37° C. in a water bath. The PrCP inhibitor test compounds were plated in 100% DMSO with a highest concentration of 500 uM. There were 12 dilution points for each compound tested including a blank with DMSO only. The test compounds from the source titration plate were transferred into the assay reaction plate at a 1:50 dilution using the Hamilton Star workstation and mixed, resulting in a final concentration for the test compounds in the range of 10,000 to 0.066 nM. Likewise, two control compounds were similarly titrated and included in each assay, with final starting concentrations starting at 10,000 nM and 200 nM, respectively. The reaction was initiated by the addition of 75 uM of the (1S)-1-carboxy-5-[(2,4-dinitrophenyl)amino]pentyl N-[(7-methoxy-2-oxo-2H-chromen-4-yl)acetyl]-L-alanyl-L-prolinate substrate, which was diluted in a mixture of 10 mM NaOAc (pH 5.5)/100 mM NaCl that had been warmed to 37° C. in a water bath, dispensed using the Hamilton Star workstation and mixed. The substrate was solubilized in 100% DMSO prior to dilution into the assay. The final assay concentrations in the 50 uL reactions were 15 uM of (1S)-1-carboxy-5-[(2,4-dinitrophenyl)amino]pentyl N-[(7-methoxy-2-oxo-2H-chromen-4-yl)acetyl]-L-alanyl-L-prolinate substrate, 0.13 nM Human PrCP (CHO) or 0.09 nM Mouse PrCP (CHO), and 2% DMSO.
For the molecule `Fc1ccc(-c2cc([C@H]3CC[C@H](c4ccccc4)NC3)n(-c3ncccn3)n2)cc1` (mixture of isomers) [Example 4], the IC50 was determined as 4.1 nM.
As for `COC(=O)N1C[C@@H](c2cc(-c3ccc(Cl)cc3)nn2-c2ncccn2)CC[C@@H]1c1ccccc1` (mixture of isomers) [Example 13], the IC50 turned out to be 1.3 nM.
Consider `CNC(=O)N1C[C@@H](c2cc(-c3ccc(F)cc3)nn2-c2ncccn2)CC[C@@H]1c1ccccc1` (mixture of isomers) [Example 95], for which the IC50 was found to be 10 nM.
As to `CC(C)(C)OC(=O)N1C[C@H](c2cc(-c3ccc(F)cc3)nn2-c2ncccn2)CC[C@@H]1CCc1ccccc1` (racemic) [Example 5, tert-Butyl 5-[3-(4-fluorophenyl)-1-(pyrimidin-2-yl)-1H-pyrazol-5-yl]-2-(2-phenylethyl)piperidine-1-carboxylate], the IC50 was 8 nM.
As for `Fc1ccc(-c2cc([C@@H]3CC[C@H](CCc4ccccc4)NC3)n(-c3ncccn3)n2)cc1` (racemic) [Example 6, 2-{3-(4-Fluorophenyl)-5-[6-(2-phenylethyl)piperidin-3-yl]-1H-pyrazol-1-yl}pyrimidine], the IC50 came out at 2.1 nM.
Same read-out and setting: under `Clc1ccc(-c2cc(C3CNC(CCc4ccccc4)CO3)n(-c3ncccn3)n2)cc1` (single isomer, unassigned) [Example 8, 2-[3-(4-Chlorophenyl)-1-(pyrimidin-2-yl)-1H-pyrazol-5-yl]-5-(2-phenylethyl)morpholine] stands 12 nM; under `O=C(Cc1cccc2ccccc12)N1CCCC(c2cc(-c3ccc(F)cc3)nn2-c2ncccn2)C1` (stereo not shown) [Example 17], 1.2 nM.
Turning to `O=C(Cc1ccccc1C(F)(F)F)N1CCCC(c2cc(-c3ccc(F)cc3)nn2-c2ncccn2)C1` (stereo not shown) [Example 20], the IC50 was found to be 0.65 nM.
Take `O=C(CC1CCCCC1)N1CCCC(c2cc(-c3ccc(F)cc3)nn2-c2ncccn2)C1` (stereo not shown) [Example 36]: the IC50 was found to be 30 nM.
For the molecule `O=C(NCCc1ccc(F)cc1)N1CCCC(c2cc(-c3ccc(F)cc3)nn2-c2ncccn2)C1` (stereo not shown) [Example 82], the IC50 was determined as 27 nM.
In the case of `O=S(=O)(CCC(F)(F)F)N1CCCC(c2cc(-c3ccc(F)cc3)nn2-c2ncccn2)C1` (stereo not shown) [Example 109], the IC50 is 4.5 nM.
